Assay results from US20140187507A1, “TREATMENT OF PARKINSONS DISEASE WITH GLYCOLIPIDS” (Rutgers, The State University of New Jersey, priority 2012, published 2014).
“Also recorded” adds a separate entry of the source.

Legend:
[1] = tested on: GM1 deficient mice (HT, KO); test: Rescue of striatal dopamine levels and dopaminergic cells in the GM1 deficient mouse (IHC of SNpc); assay type: in vivo; conditions: HT mice 200 days old, 2.5 mg/Kg, 3x/wk, ip, 5 weeks, vs saline
Procedure: FIG. 3. Reversal of PD neuropathology by GM1 replacement. HT mice (200 days old) were treated with saline or compound XVIII (2.5 mg/Kg; 3×/wk, ip) over 5 weeks.
Heterozygote mice (200 days old, DOA) were treated with saline or analog XVIII (2.5 mg/Kg; 3×/wk, IP) over 5 weeks.

[2] = tested on: GM1 deficient mice (HT, KO); test: Motor function in GM1 deficient mice (grip duration, irritant removal, pole climbing); assay type: in vivo, mouse; conditions: HT mice 200 DOA
Procedure: FIG. 4. […] Grip duration (a) and irritant removal (b) were tested in mice at 200 DOA before and after IP injection of L-DOPA.
FIG. 5. […] Mice (200 DOA) were treated IP with saline or compound XVIII (2.5 mg/Kg; 3×/wk) over 5 weeks. (a) grip duration; (b) irritant removal; (c) pole climbing.
HT mice (200 DOA) were treated with saline or analog XVIII (2.5 mg/Kg; 3×/wk; IP) over 5 weeks.

[3] = tested on: HT GM1 deficient mice; test: Cognitive function in GM1 deficient mice, T-maze test; assay type: in vivo, mouse; conditions: 4 wks dosing, 4 mice/group, saline control
Procedure: FIG. 6. […] T-maze test: 4 wks dosing with GM1 analog XVIII; 4 mice/group; age as indicated. The rate of alternation is a statistical plot as 0.5 (pure chance) to 1.0 (perfect score). Saline was administered as control.
HT and KO mice in two age groups were evaluated for cognitive function with the T maze test (FIG. 6).

[4] = tested on: RET phosphorylation (RET-p); test: RET phosphorylation in GM1 deficient mice, IHC with anti-RET-P and anti-TH; assay type: in vivo, mouse
From the text: FIG. 8. GM1 replacement restores normal RET phosphorylation (RET-p) from subnormal state in GM1 deficient mice.

[5] = tested on: NG-CR72 cells lacking GM1; test: Spontaneous alpha-synuclein aggregation in differentiated cells deficient in GM1; assay type: cell-based; conditions: 1 μM; cells differentiated with db-cAMP/KCl
From the text: FIG. 9. Spontaneous formation of alpha-synuclein aggregates in cells deficient in GM1.

[6] = tested on: NG108-15 neuroblastoma cells; test: Cell death and neurite outgrowth in MPP-treated differentiated neuroblastoma cells; assay type: cell-based
From the text: FIG. 12. GM1 replacement therapy reduces cell death and increases neurite outgrowth. NG108-15 neuroblastoma cells were differentiated for 7 days with db-cAMP/KCl, then treated 2 days with MPP and indicated compound for 2 days. […] LIGA-20 is GM1 analog XVIII and compound 6 is analog XXXVII/XXXVIII.

[7] = tested on: MPTP-treated mice; test: Rescue of striatal dopamine levels and dopaminergic cells in MPTP-treated mice; assay type: in vivo, C57B1/6 mice; conditions: once daily for 3 weeks after MPTP; GM1 30 mg/kg IP; analogs 2, 3, 4, 6, LIGA20 at 0.3 or 30 mg/Kg IP or 30 mg/Kg PO (FIG. 10)
Procedure: FIG. 10. GM1 analogs increase dopamine and TH+ cell numbers in the SNpc of MPTP treated mice. All agents administered once daily (I.P. or P.O.) for 3 weeks following MPTP treatment. (a) GM1 (1; 30 mg/Kg; IP), analog (3, 4 and 6; 0.3 mg/Kg; IP). (b) LIGA20 (2; 30 mg/Kg), analogs (2, 3 and 6; 30 mg/Kg; IP). (c) analogs (4 and 6; 30 mg/Kg; PO). (d) TH+IHC of the SNpc after treatment with saline or analog (6) (30 mg/Kg; PO) C=saline control. I and II are two separate experiments. Compound 2 is (XXIX/XXX), compound 3 is (XXVII/XXVIII), compound 4 is (XXXI/XXXII), compound 6 is (XXXVIII/XXXVII). LIGA20 is (XVIII).
C57B1/6 mice 7-8 weeks of age were treated with MPTP (b.i.d., 20 mg/kg, s.c.). The mice also receive a daily administration of saline, GM1 (30 mg/kg), or a compound of the invention (0.3 to 3 mg/kg, i.p. and 30 mg/kg os) for three weeks starting 24 h after the last MPTP injection. The brains were removed and analyzed for striatal dopamine levels. The midbrain were fixed for TH immunohistochemistry and dopamine neuron cell counts.

[8] = tested on: rat cortical cells; test: Protection of cortical cells from apoptosis (hydrogen peroxide, MTT assay); assay type: cell-based; conditions: 50 μM hydrogen peroxide, FIG. 11
Procedure: To induce apoptosis, rat cortical cells were cultured and treated with 50 μM hydrogen peroxide for three hours prior to being treated with the ganglioside analogue. The cells were also treated with the hydrogen peroxide during treatment with the ganglioside analogue and post-treatment for 48 h. Cell death was assayed using the MTT assay.

[9] = tested on: Parkinson's disease patients; conditions: peripheral subcutaneous administration for 5 years; cited from earlier work
[10] = peripheral subcutaneous administration; cited from earlier work
[11] = 1 μM, differentiated 7 days with db-cAMP/KCl, MPP and compound 2 days

In the case of `CCCCCCCCCCCCC/C=C/[C@@H](O)[C@H](CO[C@@H]1OC(CO)[C@@H](O[C@@H]2OC(CO)[C@H](O[C@@H]3OC(CO)[C@H](O)[C@H](O[C@@H]4OC(CO)[C@H](O)[C@H](O)C4O)C3NC(C)=O)[C@H](O[C@]3(C(=O)O)C[C@@H](O)[C@@H](NC(C)=O)C([C@H](O)[C@H](O)CO)O3)C2O)[C@H](O)C1O)NC(=O)C(Cl)Cl` (some centres unmarked) [compound XVIII], the “TH+ dopaminergic neuron number in SNpc” value [1] is reported as “increase in TH+ dopaminergic cells; also recorded: neuron number increase”, the “striatal dopamine (DA) levels” value [1] is reported as “elevation of striatal dopamine; also recorded: DA levels increase” and the “αSyn aggregates in TH+ cells of SNpc” value [1] is reported as “reduction of αSynuclein; also recorded: αSyn aggregates decrease”. For the same compound, the “motor function (grip duration, irritant removal, pole climbing tests)” value ([2]; 2.5 mg/Kg, 3x/wk, IP, 5 weeks, vs saline, 2.5 mg/kg) was “significantly improved motor function; also recorded: improves motor function”, the “cognitive function, T-maze rate of alternation” value [3] was “improves cognitive function” and the “RET phosphorylation (RET-p)” value ([4]; HT mice (low GM1)) was “significantly elevated”. The “RET phosphorylation (RET-p)” value ([4]; KO mice (no GM1)) was “significantly elevated”, the “αSyn-aggregation (FITC-anti-αSyn antibody staining)” value [5] was “suppressed” and the “% of cells with neurites” value [6, 11] was “similarly improved”. The relative cell number [6, 11] was “significantly improved”.
With `N[C@@H](Cc1ccc(O)c(O)c1)C(=O)O` [L-DOPA, reference compound] the “motor deficits (grip duration, irritant removal)” value ([2]; before and after IP injection of L-DOPA) was “alleviates motor deficits”.
In the case of GM1, the striatal dopamine levels [7] is reported as “increased striatal dopamine levels”, the “protection of cells from apoptosis” value [8] is reported as “provided protection of the cells from apoptosis” and the “% of cells with neurites” value ([6]; GM1 at 100 μM) is reported as “similarly improved”. The relative cell number ([6]; GM1 at 100 μM, compared with LIGA-20 and compound 6 at 1 μM) was “equivalent”, the “progression of motor function loss” value [9] was “slowed the progression of motor function loss” and the “share of the administered dose able to penetrate the brain” value [10] was “less than 1%”.
